The values that follow come from patent US20100284984A1, “ADENOSINE AND ITS MIMETICS. MODULATORS, TRANSPORT INHIBITORS, AND RECEPTOR AGONISTS AS A THERAPEUTIC TOOL TO REPLACE OR IMPROVE THE EFFICACY OF DEEP BRAIN STIMULATION” (University of Rochester, priority 2007, published 2010).

“Also recorded” adds a separate entry of the source. Structures can show the parent of a compound that is named as a salt. Where two headings read alike, the source gives them in different places.

Test [1] addresses S-adenosylhomocysteine hydrolase (Homo sapiens, UniProt P23526). The following applies: cited from earlier work.
For test [2], the target named is Nucleoside Triphosphate Diphosphohydrolases. The following applies: Gendron et al.; cited from earlier work.
Test [3] deals with adenosine kinase (Homo sapiens, UniProt P55263). As to conditions: cited from earlier work.
Test [4] has as its target Ecto-ATPase. The following applies: Chen et al., endothelial cells; cited from earlier work.
In test [5] the test system is thalamic neurons. Put plainly: HFS-induced depression of eEPSPs in thalamic slices, pharmacology. The class given is cell-based, mouse. The following applies: 50 μM; HFS 250 μA, 100 μs, 5 sec, 20° C.
Test [6] deals with thalamic neurons. Put plainly: HFS-induced membrane depolarization of thalamic neurons. The test is classed as cell-based, mouse. As to conditions: thalamic slices during HFS.
Test [7] concerns thalamic neurons. Put plainly: Drug effect on evoked EPSPs (eEPSP) in thalamic slices, current clamp. The class given is cell-based, mouse. The method, then:
Thalamic slices (300 μm) from 14-18 day old mouse pups (FVB/NJ mice; Jackson Laboratory) were cut on a Vibratome (TPI) in an ice-cold cutting solution containing (in mM): 2.5 KCl, 1.25 NaH2PO4, 10 MgSO4, 5 CaCl2, 10 glucose, 26 NaHCO3, 230 sucrose and gassed with 5% CO2 and 95% O2. Slices were incubated for a minimum of 1 hr in a slice solution containing (in mM): 126 NaCl, 2.5 KCl, 1.25 NaH2PO4, 2 MgCl2, 2 CaCl2, 10 glucose, and 26 NaHCO3, pH 7.4, and gassed with 5% CO2 and 95% O2 at room temperature. The slices were transferred to a recording chamber (1.5 ml) perfused with aCSF at room temperature or 32° C. Whole-cell current clamp recordings were obtained using a 700B Multiclamp amplifier (Axon Instruments) (Jiang et al., “A Kainate Receptor Increases The Efficacy of Gabaergic Synapses,” Neuron 30:503-13 (2001); Tian et al., “An Astrocytic Basis of Epilepsy,” Nat Med 11:973-81 (2005), which are hereby incorporated by reference in their entirety). Concentric bipolar stimulating electrodes (FHC) were placed ˜100-400 μm ventromedial to the patched VL thalamic neuron. Stimulation was delivered through a constant isolated current source (ISO-Flex stimulus isolator with a Master-8-vp stimulator; AMPI) and consisted of monophasic 60 μs square pulses of varying amplitude (15, 25, 50 μA) and frequency (25, 75, 125, 200 Hz). Based upon maximum current amplitude and the surface area of the electrode, it is estimated that the maximum charge density was in the range of ˜1-10 μC/cm^2. The artifacts of the HFS signal were blanked and staggered to allow continuous observation of the 2.5 Hz signal (Anderson et al., “Selective Attenuation of Afferent Synaptic Transmission as a Mechanism of Thalamic Deep Brain Stimulation-Induced Tremor Arrest,” J Neurosci 26:841-50 (2006), which is hereby incorporated by reference in its entirety). Adenosine measurements were detected using needle shaped electrode (Pt/Ir wire) biosensors (Sarissa Biomedical). Calibration was carried out at the beginning and end of each slice experiment in the bath above the slice. Measurements were obtained ˜100 μm from the stimulation electrode in the thalamic slice. […].
To further analyze the role of adenosine in HFS, the effect of perfusion with an aCSF containing 1-100 μM adenosine in thalamic slices was studied. […]. […] The AMPA receptor antagonist, CNQX could not be tested due to its direct effect on EPSCs (Wang et al., “Astrocytic Ca(2+) Signaling Evoked by Sensory Stimulation in Vivo,” Nat Neurosci 9:816-23 (2006), which is hereby incorporated by reference in its entirety) (FIG. 3G). […]. […]

For test [8], the system named is harmaline-induced tremor. Put plainly: Harmaline-induced tremor, intrathalamic delivery by bilateral microdialysis probes. The class given is in vivo, mice. As to conditions: for tremor activity: thalamus; for tremor following washout: after cessation of microdialysis of agonist; for time course of depression of tremor: microdialysis perfusion. The method, then: Harmaline was administed i.p. 20 min prior to DBS (20-30 mg/kg) (Wilms et al., “Animal Models of Tremor,” Mov Disord 14:557-71 (1999); Martin et al., “Harmaline-Induced Tremor as a Potential Preclinical Screening Method for Essential Tremor Medications,” Mov Disord 20:298-305 (2005), which are hereby incorporated by reference in their entirety). 6-OHDA (3 μg/μl in saline containing 0.1% ascorbic acid) was injected in the right median forebrain bundle (AP: −1.2 mm; ML: ±1.1 mm; DV: −5.0 mm in a volume of 2 μl) (Jolicoeur et al., “Hypokinesia, Rigidity, and Tremor Induced by Hypothalamic 6-OHDA Lesions in The Rat,” Brain Res Bull 26:317-20 (1991), which are hereby incorporated by reference in their entirety) in mice anaesthetized with urethane (1.6 g/kg). Only animals that developed body tremor were included in the study. Tacrine was administered in a dose of 2.5 mg/kg i.p. and induced a robust jaw response with the peak frequency within the 3-5 Hz range (Cousins et al., “Tremulous Jaw Movements Induced by The Acetylcholinesterase Inhibitor Tacrine: Effects of Antiparkinsonian Drugs,” Eur J Pharmacol 322:137-45 (1997), which is hereby incorporated by reference in its entirety). […] For electrode and microdialysis implantation, mice were anaesthetized with a mixture of Ketamine (60 mg/kg) and Xylazine (10 mg/kg) and placed into a stereotactic frame. The skull was exposed and concentric bipolar microelectrodes (SNE-100, KOPF) or microdialysis probes (Bioanalytical Systems, Inc.) were implanted into the ventrolateral thalamic nucleus at the following coordinates: AP: −1.4 mm; ML: ±0.9 mm; DV: −3.7 mm. The electrodes or microdialysis probes were attached to the skull with dental cement. Following 24 hrs recovery, stimulation was delivered through a constant isolated current source (An ISO-Flex stimulus isolator with a Master-8-vp stimulator; AMPI) and consisted of monophasic 60 μs square pulses of varying amplitude (15, 25, 50 μA) and frequency (25, 75, 125, 200 Hz). The electrodes implanted in tremor patients has 4 contacts with a total surface area of 0.24 cm^2, an impedance ˜500 Ohm, and an upper limit of 30 μC/cm^2 in charge density (Kuncel et al., “Selection of Stimulus Parameters for Deep Brain Stimulation,” Clin Neurophysiol 115:2431-41 (2004), which is hereby incorporated by reference in its entirety). In mice, electrodes with a smaller tip (diameter 0.0055-0.250 mm, surface area 0.001-0.05 mm^2) were used and the current amplitude was adjusted to obtain charge density within the clinical range. Microdialysis probes were perfused 24 hrs after implantation using a microinjection pump (Harvard Apparatus Inc. USA) at a rate of 2 μl/min. The perfusion buffer contained (in mM): 138 NaCl, 1.5 K2HPO4, 2 CaCl2, 2 MgCl2, 10 HEPES, pH 7.3. […]. Tremor was recorded by either EMG electrodes placed in the occipital muscles or by the Convuls-1 pressure transducer (Columbus Instruments) in awake freely moving animals. […]. The mice were perfusion-fixed and sectioned on a vibratome (TPI) for confirmation of electrode or microdialysis probe placements.
[…]. Microdialysis probes were inserted bilaterally in thalamus 24-48 hrs prior to administration of harmaline. […].

Test [9] deals with Rat Parotid Ecto-ATPase. As to conditions: Dowd et al.; cited from earlier work.
The target in test [10] is adenosine transport. The following applies: cited from earlier work; for Ki: adenosine transport inhibitors.

Chain of S-adenosylhomocysteine hydrolase (P23526 whole entry): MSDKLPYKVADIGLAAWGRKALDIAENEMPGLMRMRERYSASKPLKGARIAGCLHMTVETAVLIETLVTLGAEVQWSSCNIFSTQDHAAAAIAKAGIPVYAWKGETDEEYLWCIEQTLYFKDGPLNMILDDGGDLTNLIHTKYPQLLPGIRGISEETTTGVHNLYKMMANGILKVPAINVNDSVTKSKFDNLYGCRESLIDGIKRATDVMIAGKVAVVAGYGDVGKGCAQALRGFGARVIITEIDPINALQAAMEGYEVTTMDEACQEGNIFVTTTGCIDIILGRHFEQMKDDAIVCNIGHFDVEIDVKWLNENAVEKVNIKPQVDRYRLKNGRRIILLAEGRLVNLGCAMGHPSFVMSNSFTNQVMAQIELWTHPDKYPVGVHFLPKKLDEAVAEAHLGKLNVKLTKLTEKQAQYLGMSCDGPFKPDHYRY
Chain of adenosine kinase (P55263 whole entry, species assumed): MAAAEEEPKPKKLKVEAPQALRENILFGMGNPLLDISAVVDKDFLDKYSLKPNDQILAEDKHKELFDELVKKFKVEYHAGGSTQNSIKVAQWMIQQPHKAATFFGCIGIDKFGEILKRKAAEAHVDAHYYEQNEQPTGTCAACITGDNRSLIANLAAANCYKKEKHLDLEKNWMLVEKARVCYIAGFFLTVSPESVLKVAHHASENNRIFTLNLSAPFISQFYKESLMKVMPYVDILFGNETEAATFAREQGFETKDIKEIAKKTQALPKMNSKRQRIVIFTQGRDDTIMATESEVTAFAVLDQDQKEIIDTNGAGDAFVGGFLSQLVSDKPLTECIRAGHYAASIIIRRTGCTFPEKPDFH

3-deaza-DEA methylester [C3-OMeDEA]: the inhibition constant Ki in test [1] (read-out: Ki) is 1500 nM. Regarding 8-CH2BuS-ATP, the Ki in test [2] was 45000 nM. `CCCCSc1nc2c(N)ncnc2n1[C@@H]1O[C@H](COP(=O)(O)OP(=O)(O)OP(=O)(O)O)[C@@H](O)[C@H]1O` [8-Bus-ATP]: the Ki in test [2] is 10000 nM.

As for `Nc1ncnc2c1c(I)cn2[C@@H]1C[C@H](N)[C@@H](O)[C@H]1O` [A-134974], the 50% inhibitory concentration (IC50) in [3] (McGaraughty et al.) is 0.06 nM. In the case of `Nc1ncnc2c1c(Br)cn2C1CC(N)C(O)C1O` (stereo not drawn) [A-286501, N7-((1′R,2′S,3′R,4′S)-2′,3′-dihydroxy-4′-amino-cyclopentyl)-4-amino-5-bromo-pyrrolo[2,3-a]pyrimidine], the half-maximal inhibitory concentration (IC50) in [3] is 0.47 nM. As to `Nc1ncnc2c1ncn2[C@@H]1O[C@H](COP(=O)(O)OP(=O)(O)NP(=O)(O)O)[C@@H](O)[C@H]1O` [AMP-PNP], the “pIC 50” value in [4] was 4.0. Consider `N[C@@H](CCCP(=O)(O)O)C(=O)O` [APV], for which the “effect on HFS-induced depression of eEPSPs (FIG. 3G)” value in test [5] is “no significant effect”. In test [6], the “HFS-induced change of neuronal membrane potential (depolarization / hyperpolarization)” value came to 18.15±6.69 mV. With `Nc1ncnc2c1ncn2[C@@H]1O[C@H](CO[P@](=O)(O)O[P@](=O)(O)O[P@@](=O)(O)S)[C@@H](O)[C@H]1O` [ATPyS], the “pIC 50” value in test [4] was 5.2. On to `Nc1nccc2c1ncn2C[C@@H](O)[C@@H](O)C(=O)O` [C3-DEA, 3-deaza-DEA], for which, in [1] (read-out: Ki), the Ki was 1500 nM. For the compound `OC[C@H]1O[C@@H](n2cnc3c(NC4CCCC4)nc(Cl)nc32)[C@H](O)[C@@H]1O` [CCPA, 2-chloro-N6-cyclopentyladenosine], the “depression of eEPSPs” value in test [7] (1.0 μM) was 75.59±4.98%. The tremor activity result in [8] (CCPA 10-100 μM in microdialysis perfusate) is given as “attenuated; also recorded: reduced tremor activity with a potency comparable to DBS”. Also, in [8], the tremor following washout entry is on record as “rebound effect was often observed” and the “time course of depression of tremor” value is “developed slowly over minutes”. Consider `N#Cc1cc2[nH]c(=O)c(=O)[nH]c2cc1[N+](=O)[O-]` [CNQX], for which the “HFS-induced change of neuronal membrane potential (depolarization / hyperpolarization)” value in test [6] came to 15.91±4.53 mV.

Turning to `CCOc1ccc(Nc2ccc(C(=C3C=CC(=[N+](CC)Cc4cccc(S(=O)(=O)[O-])c4)C=C3)c3ccc(N(CC)Cc4cccc(S(=O)(=O)O)c4)cc3)cc2)cc1` [Coomassie brilliant blue R], the IC50 in test [9] is 114000 nM. Take `Nc1ncnc2c1ncn2C[C@@H](O)[C@@H](O)C(=O)O` [DEA, eritadenine[2(R),3(R)-dihydroxy-4-(9-zdenyl)-butyric acid]]: the Ki in test [1] is 30 nM. For `O=S(=O)(O)c1cc(N=C=S)ccc1C=Cc1ccc(N=C=S)cc1S(=O)(=O)O` [DIDS, 4,4′diisothiocyanatostilbene-2,2′disulphonec acid], the IC50 in test [9] is 150000 nM.

For the compound `COC(=O)C(O)CCn1cnc2c(N)ncnc21` (stereo not drawn) [DZ2002, methyl 4-(adenine-9-yl)-2-hydroxybutanoate], the Ki in test [1] (read-out: Ki) is 17.9 nM. Regarding `CCOc1cc2nc(N3CCOCC3)nc(N3CCC(n4c(=O)c5cc(C)ccc5n(C)c4=O)CC3)c2cc1OCC` [KF 24345, 3-[1-(6,7-diethoxy-2-morpholinoquinazolin-4-yl)piperidin-4-yl]-1,6-dimethyl-2,4(1H,3H)-quinazolinedione hydrochloride], in test [10], the Ki is 0.1 to 1 nM. As to `CCCn1cnc2c1c(=O)n(CCCCC(C)=O)c(=O)n2C` [Propentofylline], in test [10], the Ki is 10000 to 100000 nM.

With `Nc1ncnc2c1ncn2[C@@H]1O/C(=C\F)[C@@H](O)[C@H]1O` [ZDDFA, (Z)-4′,5′-didehydro-5′-deoxy-5′-fluoroadenosine], the inhibitory constant (Ki) in test [1] was 39.9 nM. `Nc1ncnc2c1ncn2[C@@H]1O[C@H](CO)[C@@H](O)[C@H]1O` [adenosine]: in [7] (Mus musculus, Neuron, aCSF containing 1-100 μM adenosine, read-out: ED50 for depression of eEPSP amplitude), the EC50 was determined as 3350 ± 750 nM. The “maximal reduction of eEPSP amplitude” value in test [7] (aCSF containing 1-100 μM adenosine) is recorded as 76.13±6.47 % of control values. Also, the tremor activity result in test [8] (adenosine 1-10 mM in microdialysis perfusate) is given as “reduced tremor activity with a potency comparable to DBS”. Moreover, in test [8], the tremor following washout entry is on record as “rebound effect was often observed” and the “time course of depression of tremor” value is recorded as “developed slowly over minutes”. With `O=C1CCc2cc(OCCCCc3nnnn3C3CCCCC3)ccc2N1` [cilostazol], the half-maximal inhibitory concentration (IC50) in test [10] (adenosine uptake (Liu et al.)) was 10000 nM.

For `COc1cc(C(=O)OCCCN2CCCN(CCCOC(=O)c3cc(OC)c(OC)c(OC)c3)CC2)cc(OC)c1OC` [dilazep], the Ki in [10] is 0.1 to 1 nM. Take `Cc1cccc(C)c1NC(=O)CN1CCN(CCCC(c2ccc(F)cc2)c2ccc(F)cc2)CC1` [lidoflazine]: the Ki in test [10] (unit inferred) was 100 nM.

On to `Cc1ncc2n1-c1ccc(Cl)cc1C(c1ccccc1F)=NC2` [midazolam], for which, in test [10] (unit inferred), the inhibition constant (Ki) was 1000 nM.

For `NC(=O)C1CN(CC(=O)Nc2c(Cl)cccc2Cl)CCN1CCCC(c1ccc(F)cc1)c1ccc(F)cc1` (stereo not drawn) [mioflazine], in test [10] (unit inferred), the Ki was 10 nM. On to `Nc1ncnc2c1ncn2[C@@H]1O[C@H](COP(=O)(O)CP(=O)(O)OP(=O)(O)O)[C@@H](O)[C@H]1O` [α,β-MeATP], for which the “pIC 50” value in test [4] is 4.5.
